# “And” between values parts separate entries of the source, which are not always exact repeats. Equal values may be shown once.
# Molecular target: Beta-arrestin-1 (Oryctolagus cuniculus, UniProt Q95223)
# Sequence (Q95223 whole entry): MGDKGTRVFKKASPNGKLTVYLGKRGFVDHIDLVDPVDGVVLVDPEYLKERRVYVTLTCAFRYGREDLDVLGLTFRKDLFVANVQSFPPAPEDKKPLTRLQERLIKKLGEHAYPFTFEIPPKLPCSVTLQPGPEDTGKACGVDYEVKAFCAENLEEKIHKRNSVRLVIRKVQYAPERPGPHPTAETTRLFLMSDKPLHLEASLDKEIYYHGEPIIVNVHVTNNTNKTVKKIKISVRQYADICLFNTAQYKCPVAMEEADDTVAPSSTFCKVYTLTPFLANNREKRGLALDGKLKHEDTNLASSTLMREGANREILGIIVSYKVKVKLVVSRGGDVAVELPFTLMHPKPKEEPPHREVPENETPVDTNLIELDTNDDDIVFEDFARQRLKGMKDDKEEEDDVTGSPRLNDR
row,SMILES,Ki
1,O=C1CCCN1CC#CCN1CCCC1 [1-[4-(2-oxo-pyrrolidin-1-yl)-but-2-ynyl]-pyrrolidinium],214 nM and 1560 nM
2,CC(=O)OCC[N+](C)(C)C [2-acetoxyethyl(trimethyl)ammonium;perchlorate],3230 nM
3,C[N+](C)(C)CCOC(N)=O [(2-Hydroxyethyl)trimethyl ammonium chloride carbamate],1660 nM and > 10000 nM

# — BindingDB's records for PubMed 3806397 (University of Arizona, 1987)
